Literature values, collected in patent publication US9090495B2, “Slow release tablet composition for treating industrial water systems” (AMSA, Inc., priority 2009, dated 2015).

How the values were obtained:
[1] = typical cooling tower system; composition of U.S. Pat. No. 4,816,061
[2] = alkaline pH, such as pH~9, industrial water system conditions

CCCCCCCCCCSCCN [n-decylthioethylamine]
Duration of effectiveness of a typical dose [1]: 1 to 1.5 days

N#CC(Br)(Br)C(N)=O [DBNPA, 2,2-dibromo-3-nitrilopropionamide]
Time to degradation [2]: a few minutes
